Patent publication US20210138025A1, “CATIONIC PEPTIDES WITH IMMUNOMODULATORY AND/OR ANTI-BIOFILM ACTIVITIES” (priority 2018, published 2021)
Non-standard residues stand in square brackets, D forms with d. No end group written: not given here. hArg = N=C(N)NCCCC[C@H](N)C(=O)O; Agb = N=C(N)NCC[C@H](N)C(=O)O; Agp = N=C(N)NC[C@H](N)C(=O)O; Dab = NCC[C@H](N)C(=O)O; Dap = NC[C@H](N)C(=O)O

The substances below were run on S. aureus (MRSA SAP0017). Details: SPOT synthesized control peptides, determined as in Table 5; Table 7.
Assay type: cell-based, Staphylococcus aureus
Procedure: Methods of assessment of anti-biofilm activity: MRSA S. aureus strain SAP0017 biofilm formation was initially analyzed using a static abiotic solid surface assay as described elsewhere (de la Fuente-Nunez et al., 2012) and shown graphically in FIG. 2. Dilutions (1/100) of overnight cultures were incubated in BM2 biofilm-adjusted medium [62 mM potassium phosphate buffer (pH 7), 7 mM (NH4)2SO4, 2 mM MgSO4, 10 μM FeSO4, 0.4% (wt/vol) glucose, 0.5% (wt/vol) Casamino Acids], or a nutrient rich medium such as Tryptic soy broth supplemented with 1% glucose, in polypropylene microtiter plates (Falcon, United States) in the absence (control) or presence of peptide. Peptide was added at time zero (prior to adding the diluted, overnight cultures) in varying concentrations, and the amount biofilm formation was recorded after 22-46 h incubation for most bacteria. To quantify biofilm growth, planktonic cells were removed and biofilm cells adhering to the side of the wells were stained with crystal violet, and absorbance at 595 nm was measured using a microtiter plate reader (Bio-Tek Instruments Inc., United States).

In order of rising “% Biofilm Inhibition” value:
1. C93 (VRLIVAV[Dap]IWRR) [Peptide C93]  71%
2. C95 (V[Dab]LIVAVRIWRR) [Peptide C95]  71%
3. C79 (VRLIVAVRIWR[Agb]) [Peptide C79]  72%
4. C87 (V[Dap]LIVAVRIWRR) [Peptide C87]  73%
5. C86 (VRLIVAVRI[hArg]RR) [Peptide C86]  75%
6. C91 (VRLIV[Dap]VRIWRR) [Peptide C91]  76%
7. C69 (V[Agb]LIVAVRIWRR) [Peptide C69]  81%
8. C96 (VR[Dab]IVAVRIWRR) [Peptide C96]  89%
9. C94 (VRLIVAVR[Dap]WRR) [Peptide C94]  92%
10. C104 (VRLIVAVRIW[Dab]R) [Peptide C104]  93%
11. C58 (V[Agp]LIVAVRIWRR) [Peptide C58]  96%
12. C105 (VRLIVAVRIWR[Dab]) [Peptide C105]  96%
13. C70 (VR[Agb]IVAVRIWRR) [Peptide C70]  98%
14. C80 (V[hArg]LIVAVRIWRR) [Peptide C80]  99%
15. C85 (VRLIVAVR[hArg]WRR) [Peptide C85]  99%
16. C89 (VRL[Dap]VAVRIWRR) [Peptide C89]  99%
17. C99 (VRLIV[Dab]VRIWRR; not fully specified (C-terminus)) [Peptide C99]  100%
18. C61 (VRLI[Agp]AVRIWRR-NH2; N-terminus assumed; SMILES CC[C@H](C)[C@H](NC(=O)[C@H](CC(C)C)NC(=O)[C@H](CCCNC(=N)N)NC(=O)[C@@H](N)C(C)C)C(=O)N[C@@H](CNC(=N)N)C(=O)N[C@@H](C)C(=O)N[C@H](C(=O)N[C@@H](CCCNC(=N)N)C(=O)N[C@H](C(=O)N[C@@H](Cc1c[nH]c2ccccc12)C(=O)N[C@@H](CCCNC(=N)N)C(=O)N[C@@H](CCCNC(=N)N)C(N)=O)[C@@H](C)CC)C(C)C) [Peptide C61]  101%
19. C77 (VRLIVAVRI[Agb]RR; not fully specified (C-terminus); printed as VRLIVAVRIGbutRR) [Peptide C77]  101%
20. C78 (VRLIVAVRIW[Agb]R; not fully specified (C-terminus); printed as VRLIVAVRIWGbutR) [Peptide C78]  101%
21. C97 (VRL[Dab]VAVRIWRR; not fully specified (C-terminus)) [Peptide C97]  102%
22. C103 (VRLIVAVRI[Dab]RR-NH2; N-terminus assumed; SMILES CC[C@H](C)[C@H](NC(=O)[C@H](CCCNC(=N)N)NC(=O)[C@@H](NC(=O)[C@H](C)NC(=O)[C@@H](NC(=O)[C@@H](NC(=O)[C@H](CC(C)C)NC(=O)[C@H](CCCNC(=N)N)NC(=O)[C@@H](N)C(C)C)[C@@H](C)CC)C(C)C)C(C)C)C(=O)N[C@@H](CCN)C(=O)N[C@@H](CCCNC(=N)N)C(=O)N[C@@H](CCCNC(=N)N)C(N)=O) [Peptide C103]  102%
23. C71 (VRL[Agb]VAVRIWRR; not fully specified (C-terminus); printed as VRLGbutVAVRIWRR) [Peptide C71]  103%
24. C75 (VRLIVAV[Agb]IWRR; not fully specified (C-terminus); printed as VRLIVAVGbutIWRR) [Peptide C75]  103%
25. C92 (VRLIVA[Dap]RIWRR) [Peptide C92]  103%
26. C98 (VRLI[Dab]AVRIWRR; not fully specified (C-terminus)) [Peptide C98]  103%
27. C101 (VRLIVAV[Dab]IWRR-NH2; N-terminus assumed; SMILES CC[C@H](C)[C@H](NC(=O)[C@H](CCN)NC(=O)[C@@H](NC(=O)[C@H](C)NC(=O)[C@@H](NC(=O)[C@@H](NC(=O)[C@H](CC(C)C)NC(=O)[C@H](CCCNC(=N)N)NC(=O)[C@@H](N)C(C)C)[C@@H](C)CC)C(C)C)C(C)C)C(=O)N[C@@H](Cc1c[nH]c2ccccc12)C(=O)N[C@@H](CCCNC(=N)N)C(=O)N[C@@H](CCCNC(=N)N)C(N)=O) [Peptide C101]  103%
28. C59 (VR[Agp]IVAVRIWRR-NH2; N-terminus assumed; SMILES CC[C@H](C)[C@H](NC(=O)[C@H](CCCNC(=N)N)NC(=O)[C@@H](NC(=O)[C@H](C)NC(=O)[C@@H](NC(=O)[C@@H](NC(=O)[C@H](CNC(=N)N)NC(=O)[C@H](CCCNC(=N)N)NC(=O)[C@@H](N)C(C)C)[C@@H](C)CC)C(C)C)C(C)C)C(=O)N[C@@H](Cc1c[nH]c2ccccc12)C(=O)N[C@@H](CCCNC(=N)N)C(=O)N[C@@H](CCCNC(=N)N)C(N)=O) [Peptide C59]  104%
29. C60 (VRL[Agp]VAVRIWRR-NH2; N-terminus assumed; SMILES CC[C@H](C)[C@H](NC(=O)[C@H](CCCNC(=N)N)NC(=O)[C@@H](NC(=O)[C@H](C)NC(=O)[C@@H](NC(=O)[C@H](CNC(=N)N)NC(=O)[C@H](CC(C)C)NC(=O)[C@H](CCCNC(=N)N)NC(=O)[C@@H](N)C(C)C)C(C)C)C(C)C)C(=O)N[C@@H](Cc1c[nH]c2ccccc12)C(=O)N[C@@H](CCCNC(=N)N)C(=O)N[C@@H](CCCNC(=N)N)C(N)=O) [Peptide C60]  104%
30. C76 (VRLIVAVR[Agb]WRR; not fully specified (C-terminus); printed as VRLIVAVRGbutWRR) [Peptide C76]  104%
31. C88 (VR[Dap]IVAVRIWRR) [Peptide C88]  104%
32. C100 (VRLIVA[Dab]RIWRR-NH2; N-terminus assumed; SMILES CC[C@H](C)[C@H](NC(=O)[C@H](CCCNC(=N)N)NC(=O)[C@H](CCN)NC(=O)[C@H](C)NC(=O)[C@@H](NC(=O)[C@@H](NC(=O)[C@H](CC(C)C)NC(=O)[C@H](CCCNC(=N)N)NC(=O)[C@@H](N)C(C)C)[C@@H](C)CC)C(C)C)C(=O)N[C@@H](Cc1c[nH]c2ccccc12)C(=O)N[C@@H](CCCNC(=N)N)C(=O)N[C@@H](CCCNC(=N)N)C(N)=O) [Peptide C100]  104%
33. C102 (VRLIVAVR[Dab]WRR-NH2; N-terminus assumed; SMILES CC[C@H](C)[C@H](NC(=O)[C@H](CC(C)C)NC(=O)[C@H](CCCNC(=N)N)NC(=O)[C@@H](N)C(C)C)C(=O)N[C@H](C(=O)N[C@@H](C)C(=O)N[C@H](C(=O)N[C@@H](CCCNC(=N)N)C(=O)N[C@@H](CCN)C(=O)N[C@@H](Cc1c[nH]c2ccccc12)C(=O)N[C@@H](CCCNC(=N)N)C(=O)N[C@@H](CCCNC(=N)N)C(N)=O)C(C)C)C(C)C) [Peptide C102]  104%
34. C63 (VRLIVA[Agp]RIWRR-NH2; N-terminus assumed; SMILES CC[C@H](C)[C@H](NC(=O)[C@H](CCCNC(=N)N)NC(=O)[C@H](CNC(=N)N)NC(=O)[C@H](C)NC(=O)[C@@H](NC(=O)[C@@H](NC(=O)[C@H](CC(C)C)NC(=O)[C@H](CCCNC(=N)N)NC(=O)[C@@H](N)C(C)C)[C@@H](C)CC)C(C)C)C(=O)N[C@@H](Cc1c[nH]c2ccccc12)C(=O)N[C@@H](CCCNC(=N)N)C(=O)N[C@@H](CCCNC(=N)N)C(N)=O) [Peptide C63]  105%
35. C67 (VRLIVAVRIW[Agp]R-NH2; N-terminus assumed; SMILES CC[C@H](C)[C@H](NC(=O)[C@H](CCCNC(=N)N)NC(=O)[C@@H](NC(=O)[C@H](C)NC(=O)[C@@H](NC(=O)[C@@H](NC(=O)[C@H](CC(C)C)NC(=O)[C@H](CCCNC(=N)N)NC(=O)[C@@H](N)C(C)C)[C@@H](C)CC)C(C)C)C(C)C)C(=O)N[C@@H](Cc1c[nH]c2ccccc12)C(=O)N[C@@H](CNC(=N)N)C(=O)N[C@@H](CCCNC(=N)N)C(N)=O) [Peptide C67]  105%
36. C72 (VRLI[Agb]AVRIWRR; not fully specified (C-terminus); printed as VRLIGbutAVRIWRR) [Peptide C72]  105%
37. C84 (VRLIVA[hArg]RIWRR; not fully specified (C-terminus)) [Peptide C84]  105%
38. C62 (VRLIV[Agp]VRIWRR) [Peptide C62]  106%
39. C68 (VRLIVAVRIWR[Agp]) [Peptide C68]  106%
40. C74 (VRLIVA[Agb]RIWRR) [Peptide C74]  106%
41. C82 (VRL[hArg]VAVRIWRR) [Peptide C82]  106%
42. C83 (VRLI[hArg]AVRIWRR) [Peptide C83]  106%
43. C64 (VRLIVAV[Agp]IWRR) [Peptide C64]  107%
44. C65 (VRLIVAVR[Agp]WRR) [Peptide C65]  107%
45. C66 (VRLIVAVRI[Agp]RR) [Peptide C66]  107%
46. C81 (VR[hArg]IVAVRIWRR) [Peptide C81]  107%
